Laboratory results reported in patent US4668782A, “Anhydrous crystalline or crystalline hemihydrate monohydrate or trihydrate of cephalosporin derivative” (Teijin Limited, priority 1984, dated 1987).
Converted amounts (≈) assume the structure as drawn. Read-outs that look alike come from different tables or passages of the source.

Key:
[1] = type: physicochemical; details: sealed brown vials
Experimental: (2) The trihydrate, monohydrate, hemihydrate, and anhydride were sealed up in the brown vials respectively and stored at 85° C. and were analyzed by high performance liquid chromatography later. The result is shown in the following table (residuum percentage: %).

moisture uptake = type: physicochemical
[2] = system: Gram-positive and Gram-negative bacterials; details: Japanese Laid-Open Patent Publication No. 219292/1984; cited from earlier work
physchem = details: water
[3] = system: Aerobacter aerogenes ATCC 13048; experiment: antibacterial activity, agar dilution plating method (MIC); type: cell-based; details: Klebsiella aerogenes, ATCC13048
Experimental: (§1) (ii) The antibacterial activity of the obtained amorphous substance was determined according to the ordinary agar dilution plating method (see the Chemotherapy, 23(8), 1 (1975), of Japan Chemotherapy Society).

[4] = system: Bacillus prodigiosus IAM 1184; experiment: as above; type: cell-based; details: IAM1184
Experimental: as §1

[5] = system: Coliform bacillus NIHJ-JC-2; experiment: as above; type: cell-based; details: NIHJJC2
Experimental: as §1

Proteus vulgaris OX-19 = experiment: as above; type: cell-based; details: OX19
Experimental: as §1

[6] = system: Pseudomonas aeruginosa IFO 3445; experiment: as above; type: cell-based; details: IFO3445
Experimental: as §1

[7] = system: Staphylococcus aureus FDA 209 PJC-1; experiment: as above; type: cell-based; details: FDA209
Experimental: as §1

Typhoid bacillus 901 = experiment: as above; type: cell-based
Experimental: as §1

[8] = system: various kinds of Gram-positive and Gram-negative bacterias; experiment: antibacterial activity against Gram-positive and Gram-negative bacteria (general statement); type: cell-based

| Structure (SMILES) | residuum percentage ([1]; 240 h) [%] | residuum percentage ([1]; 576 h) [%] | conversion upon being allowed to take up moisture (moisture uptake) | further results |
| --- | --- | --- | --- | --- |
| CO/N=C(\C(=O)N[C@@H]1C(=O)N2C(C(=O)[O-])=C(C[N+]34CCC(CC3)CC4)CS[C@H]12)c1csc(N)n1 [Amorphous substance, (6R,7R)-7-[(Z)-2-(2-aminothiazole-4-yl)-2-methoxyiminoacetoamido]-3-(1-quinuclidiniummethyl)-3-cephem-4-carboxylate] | 0 | 0 |  |  |
| CO/N=C(\C(=O)N[C@@H]1C(=O)N2C(C(=O)[O-])=C(C[N+]34CCC(CC3)CC4)CS[C@H]12)c1csc(N)n1 [Anhydride, (6R,7R)-7-[(Z)-2-(2-aminothiazole-4-yl)-2-methoxyiminoacetoamido]-3-(1-quinuclidiniummethyl)-3-cephem-4-carboxylate] | 97.5 | 86.0 | reversionally converted back to the original trihydrate |  |
| CO/N=C(\C(=O)N[C@@H]1C(=O)N2C(C(=O)[O-])=C(C[N+]34CCC(CC3)CC4)CS[C@H]12)c1csc(N)n1 [Hemihydrate, (6R,7R)-7-[(Z)-2-(2-aminothiazole-4-yl)-2-methoxyiminoacetoamido]-3-(1-quinuclidiniummethyl)-3-cephem-4-carboxylate] | 98.3 | 86.3 | reversionally converted back to the original trihydrate |  |
| CO/N=C(\C(=O)N[C@@H]1C(=O)N2C(C(=O)[O-])=C(C[N+]34CCC(CC3)CC4)CS[C@H]12)c1csc(N)n1 [Monohydrate, (6R,7R)-7-[(Z)-2-(2-aminothiazole-4-yl)-2-methoxyiminoacetoamido]-3-(1-quinuclidiniummethyl)-3-cephem-4-carboxylate] | 96.1 | 85.5 | reversionally converted back to the original trihydrate |  |
| CO/N=C(\C(=O)N[C@@H]1C(=O)N2C(C(=O)[O-])=C(C[N+]34CCC(CC3)CC4)CS[C@H]12)c1csc(N)n1 [Trihydrate, (6R,7R)-7-[(Z)-2-(2-aminothiazole-4-yl)-2-methoxyiminoacetoamido]-3-(1-quinuclidiniummethyl)-3-cephem-4-carboxylate] | 97.0 | 86.8 |  |  |
| CO/N=C(\C(=O)N[C@@H]1C(=O)N2C(C(=O)[O-])=C(C[N+]34CCC(CC3)CC4)CS[C@H]12)c1csc(N)n1 [cephalosporin derivative A, (6R,7R)-7-[(Z)-2-(2-aminothiazole-4-yl)-2-methoxyiminoacetoamido]-3-(1-quinuclidiniummethyl)-3-cephem-4-carboxylate] |  |  |  | antibacterial activity [2]: strong antibacterial activity; solubility (physchem): ~300 mg/mL (≈ 592000 µM) |
| CO/N=C(\C(=O)N[C@@H]1C(=O)N2C(C(=O)[O-])=C(C[N+]34CCC(CC3)CC4)CS[C@H]12)c1nsc(N)n1 [cephalosporin derivative B, (6R,7R)-7-[(Z)-2-(5-amino-1-thia-2,4-diazole-3-yl)-2-methoxyiminoacetoamido]-3-(1-quinuclidiniummethyl)-3-cephem-4-carboxylate] |  |  |  | MIC [3]: 0.1 µg/mL (≈ 0.197 µM); MIC [4]: 0.1 µg/mL (≈ 0.197 µM); MIC [5]: 0.05 µg/mL (≈ 0.0985 µM); MIC (Proteus vulgaris OX-19): 0.2 µg/mL (≈ 0.394 µM); MIC [6]: 0.4 µg/mL (≈ 0.788 µM); MIC [7]: 3.1 µg/mL (≈ 6.11 µM); MIC (Typhoid bacillus 901): 0.2 µg/mL (≈ 0.394 µM); antibacterial activity [8]: strong antibacterial activity; solubility (physchem): ~300 mg/mL (≈ 591000 µM) |
